# Experimental data from patent publication US20100311714A1, “1H-IMIDAZO[4,5-c]QUINOLINONE COMPOUNDS” (priority 2009, published 2010).
# Where two headings read alike, the source gives them in different places.
# How the values were obtained:
# [1] = tested on: PKB Ser473 phosphorylation in Rat1-myr-HA-p110 alpha cells; experiment: Reverse protein array, PKB Ser473 phosphorylation in Rat1-myr-HA-p110 alpha cells; type: cell-based; conditions: Rattus norvegicus, 0.5 h, 30 minutes compound incubation, read-out: p-PKB/IC50_alpha
# Protocol: (§1) No. 15140-114) and 10 μg/ml Puromycine (Sigma, cat. No. P9620).
# (§2) The Rat1-myr-HA-p110 alpha, beta and delta cells were trypsinized and counted with a CASY TT cell counter (Schärfe System GmbH, Reutlingen Germany). The cells were diluted in fresh DMEM complete medium and 3×10^4 cells/150 μl/well seeded in 96-well TPP-tissue culture plates (TPP, cat. No. 92096). The plates were incubated at 37° C. and 5% CO2 under humidified condition for at least 20 h. Compound of formula I working solutions were prepared freshly as serial 8 step dilutions (vol/vol) in DMSO on the day of the experiment. The working solutions were further diluted 1/500 in cell culture medium to get final compound concentrations of 10, 3.333, 1.111, 0.370, 0.123, 0.041, 0.014, 0.005 μM. The final DMSO concentration was kept constant at 0.2%. cell culture medium containing 0.2% DMSO was used as vehicle treatment control. Post incubation, the cells were treated with the serial compound dilution. 50 μl of the compound medium mixture was added to the wells containing cells and 150 μl DMEM medium and incubated for 30 minutes (37° C., 5% CO2). After 30 minutes of incubation, the medium mixture was quickly removed by aspiration. For cell lysis, a mixture of 10% CLB1 CeLyA lysis buffer (Zeptosens, cat. No. 9000), 90% CSBL1 CeLyA spotting buffer (Zeptosens, cat. No. 9020) was freshly prepared and supplemented with 1% Octyl β-D-glucopyranoside (SIGMA, cat. No. 08001-5G) and 1 mM Na-Orthovanadate (Sigma, cat No. S-6508). 50 μl of the described lysis buffer mix was added to each well, followed by 10 minutes of incubation on ice. After an additional freeze-thaw cycle, another 50 μl of the lysis buffer mix without Octyl β-D-glucopyranoside was added to the wells, and 90 μl of the cell lysate was transferred to a 96-well V-bottom plate (Fisher Scientific, cat. No. 6067Y), followed by a centrifugation step (5 min, 1500 rpm at 19° C. in an Eppendorf 5810R centrifuge) to remove the unlysed cell debris.
# (§3) The samples were spotted onto ZeptoMARK® PWG protein microarray chips (Zeptosens, Witterswil, Switzerland) with the piezoelectric microdispense-based, non-contact Nano-Plotter 2.1 (GeSiM, Grosserkmannsdorf, Germany). Each sample was spotted at 4 different sample concentrations (d1=100%, d2=75%, d3=50%, d4=25%) by diluting the cell lysate with the corresponding volume of lysis buffer mix. After spotting the ZeptoMARK® protein microarrays, the chips are incubated for 1 hour at 37° C. To receive a uniform blocking result, the CeLyA blocking buffer BB1 (Zeptosens, cat. No. 9040) is administered via an ultrasonic nebulizer. After 20 minutes of blocking the chips are extensively rinsed with deionized water (Milli-Q quality, 18MΩ×cm) and dried in a nitrogen air flow.
# (§4) After the sample spotting and blocking procedure, the ZeptoMARK® chips were transferred to the ZeptoCARRIER (Zeptosens, cat. No. 1100), whose six flow cells individually address the six arrays on a chip, and washed twice with 200 μl CAB1 CeLyA assay buffer (Zeptosens, cat. No. 9032). The assay buffer was then aspirated and each compartment incubated with 100 μl of the primary target antibody (pAkt Ser473; CST#9271) at RT over night. Post incubation, the primary antibody was removed, the arrays washed twice with CAB1 buffer and further incubated with 100 μl of Alexa fluor 647-labeled anti rabbit IgG Fab fragments (Invitrogen; #Z25305) for one hour at RT in the dark. After incubation, the arrays were washed twice with 200 μl CAB1 buffer. The fluorescence of the target-bound Fab fragments is read out on the ZeptoReader (Zeptosens, Witterswil, Switzerland) using a laser (excitation wavelength 635 nm) and a CCD camera. The fluorescence signal was assessed with exposure times of 1, 3, 5 and 10 seconds, depending on the intensity of the signal. The resulting four images taken per array are stored as 16-bit TIF files. […]
# [2] = Parallel Artificial Membrane Permeability Assay (PAMPA) at pH 6.8; type: physicochemical
# From the text: (§5) The physicochemical properties of relevance for the absorption of the compound, such as the solubility and the membrane permeability, especially at a pH close to neutral pH can be measured using the procedure as described by L. ZHOU et al. in JOURNAL OF PHARMACEUTICAL SCIENCES, VOL. 96, NO. 11, p. 3052-3071 (2007) for the solubility at pH 6.8 and the procedure as described by F. Wohnsland and B. Faller in Journal of Medicinal Chemistry Vol 44, p. 923-930 (2001) for the Parallel Artificial Membrane Permeability Assay (PAMPA) at pH 6.8.
# The following permeability log Pe was measured for compound of formula (I) as exemplified below: […]
# [3] = tested on: S6 Ribosomal Protein phosphorylation Ser235/236 in TSC1 null mouse embryo fibroblast (MEF) cells; experiment: Reverse protein array, S6 Ribosomal Protein phosphorylation in TSC1 null MEF cells; type: cell-based; conditions: 1 h, TSC1-/- MEFs, 60 minutes
# Protocol: TSC1−/− MEFs cells (provided by D. Kwiatkowski), were cultivated in Dulbecco's modified Eagle's medium (DMEM high Glucose, GIBCO, cat. No. 41956-039) supplemented with 10% heat inactivated fetal bovine calf serum (Amimed, cat. No. 2-01F16-I), 1% L-Glutamine (Invitrogen, cat. No. 25030-02), 1% penicillin-streptomycin (GIBCO, cat. No. 15140-114) at 37° C. in a 5% CO2 and 95% relative humidity atmosphere incubator.
# The TSC1−/− cells were trypsinized and counted with a CASY TT cell counter (Schärfe System GmbH, Reutlingen Germany). The cells were diluted in fresh DMEM complete medium and 0.75×10^4 cells/150 μl/well seeded in 96-well TPP-tissue culture plates (TPP, cat. No. 92096). The plates were incubated at 37° C. and 5% CO2 under humidified condition for at least 20 h. Working solutions were prepared freshly as serial 8 step dilutions (vol/vol) in DMSO on the day of the experiment. The working solutions were further diluted 1/5000 in cell culture medium to get final compound concentrations of […]. The final DMSO concentration was kept constant at 0.02%. cell culture medium containing 0.02% DMSO was used as vehicle treatment control. Post incubation, the cells were treated with the serial compound dilution. 50 μl of the compound medium mixture was added to the wells containing cells and 150 μl DMEM medium and incubated for 60 minutes (37° C., 5% CO2). After 60 minutes of incubation, the medium mixture was quickly removed by aspiration. For cell lysis, a mixture of 10% CLB1 CeLyA lysis buffer (Zeptosens, cat. No. 9000), 90% CSBL1 CeLyA spotting buffer (Zeptosens, cat. No. 9020) was freshly prepared and supplemented with 1% Octyl β-D-glucopyranoside (SIGMA, cat. No. 08001-5G) and 1 mM Na-Orthovanadate (Sigma, cat No. S-6508). 50 μl of the described lysis buffer mix was added to each well, followed by 10 minutes of incubation on ice. After an additional freeze-thaw cycle, another 50 μl of the lysis buffer mix without Octyl β-D-glucopyranoside was added to the wells, and 90 μl of the cell lysate was transferred to a 96-well V-bottom plate (Fisher Scientific, cat. No. 6067Y), followed by a centrifugation step (5 min, 1500 rpm at 19° C. in an Eppendorf 5810R centrifuge) to remove the unlysed cell debris.
# The spotting of the chips follows the previous described method.
# The signal detection and the data analysis follows the previous described method using the pS6 ribosomal protein Ser235/236 (CST, cat. No. #2211) as a primary antibody.
# [4] = tested on: PKB Ser473 phosphorylation in Rat1-myr-HA-p110 beta cells; experiment: Reverse protein array, PKB Ser473 phosphorylation in Rat1-myr-HA-p110 beta cells; type: cell-based; conditions: Rattus norvegicus, 0.5 h, 30 minutes compound incubation, read-out: p-PKB/IC50_beta
# Protocol: as §1, §2, §3, §4
# [5] = tested on: PKB Ser473 phosphorylation in Rat1-myr-HA-p110 delta cells; experiment: Reverse protein array, PKB Ser473 phosphorylation in Rat1-myr-HA-p110 delta cells; type: cell-based; conditions: Rattus norvegicus, 0.5 h, 30 minutes compound incubation, read-out: p-PKB/IC50_delta
# Protocol: as §1, §2, §3, §4
# [6] = High-throughput equilibrium solubility at pH 6.8; type: physicochemical; conditions: pH 6.8, aqueous buffer, thermodynamic from solid; read-out: HT-Eq Sol/pH 6.8
# From the text: as §5
Compound,IC50 [1],HT-perm/logPe pH6.8 [2],IC50 [4],IC50 [5],solubility thermodynamic [6],HT-Perm logPe pH6.8 [2],IC50 ([3]; read-out: p-S6),IC50 ([3]; read-out: p-S6 IC50)
"CNc1ccc(-c2ccc3ncc4c(c3c2)n(-c2ccc(OC)nc2OC)c(=O)n4C)cn1 [Example 8.3, 1-(2,6-Dimethoxy-pyridin-3-yl)-3-methyl-8-(6-methylamino-pyridin-3-yl)-1,3-dihydro-imidazo[4,5-c]quinolin-2-one]",4.57 nM,−3.8,< 4.57 nM,19.5 nM,,,1.05 nM,
"CNc1ncc(-c2ccc3ncc4c(c3c2)n(-c2cncc(C)c2)c(=O)n4C)cn1 [Example 17.2, 3-Methyl-8-(2-methylamino-pyrimidin-5-yl)-1-(5-methyl-pyridin-3-yl)-1,3-dihydro-imidazo[4,5-c]quinolin-2-one]",46.8 nM,,94.6 nM,206 nM,,,,10 nM
"Cc1cccnc1-n1c(=O)n(C)c2cnc3ccc(-c4ccc(OCCCN(C)C)nc4)cc3c21 [Example 3.7, 8-[6-(3-Dimethylamino-propoxy)-pyridin-3-yl]-3-methyl-1-(3-methyl-pyridin-2-yl)-1,3-dihydro-imidazo[4,5-c]quinolin-2-one]",398 nM,,,,> 469 µg/mL,,,
"CCOc1ccc(-c2ccc3ncc4c(c3c2)n(-c2ccc(OC)nc2OC)c(=O)n4C)cn1 [Example 8.2, 1-(2,6-Dimethoxy-pyridin-3-yl)-8-(6-ethoxy-pyridin-3-yl)-3-methyl-1,3-dihydro-imidazo[4,5-c]quinolin-2-one]",7.36 nM,−4.3,34.6 nM,113 nM,,,7.69 nM,
"CCNc1cc(-c2ccc3ncc4c(c3c2)n(-c2ccc(N3CC[C@H](O)C3)nc2C)c(=O)n4C)cnc1CO [Example 32.6, 8-(5-Ethylamino-6-hydroxymethyl-pyridin-3-yl)-1-[6-((S)-3-hydroxy-pyrrolidin-1-yl)-2-methyl-pyridin-3-yl]-3-methyl-1,3-dihydro-imidazo[4,5-c]quinolin-2-one]",24.3 nM,,39.7 nM,83.2 nM,,,,8.6 nM

# Now from value to compound, other results behind:
IC50 [1],HT-perm/logPe pH6.8 [2],IC50 [4],IC50 [5],solubility thermodynamic [6],HT-Perm logPe pH6.8 [2],Compound,IC50 ([3]; read-out: p-S6),IC50 ([3]; read-out: p-S6 IC50)
72.6 nM,,115 nM,143 nM,,−3.8,"COCCOc1cncc(-c2ccc3ncc4c(c3c2)n(-c2ccc(OC)nc2OC)c(=O)n4C)c1 [Example 8.8, 1-(2,6-Dimethoxy-pyridin-3-yl)-8-[5-(2-methoxy-ethoxy)-pyridin-3-yl]-3-methyl-1,3-dihydro-imidazo[4,5-c]quinolin-2-one]",,7 nM
30.3 nM,,31 nM,84.2 nM,,,"Cc1nc(N2CC[C@@H](O)C2)ccc1-n1c(=O)n(C)c2cnc3ccc(-c4cncc(C(C)(C)C#N)c4)cc3c21 [Example 34.5, 2-(5-{1-[6-((R)-3-Hydroxy-pyrrolidin-1-yl)-2-methyl-pyridin-3-yl]-3-methyl-2-oxo-2,3-dihydro-1H-imidazo[4,5-c]quinolin-8-yl}-pyridin-3-yl)-2-methyl-propionitrile]",,2 nM
5.3 nM,,132 nM,26.4 nM,,−4.1,"COc1ncc(-c2ccc3ncc4c(c3c2)n(-c2ccc(C(C)(C)O)nc2C)c(=O)n4C)c(OC)n1 [Example 31.3, 8-(2,4-Dimethoxy-pyrimidin-5-yl)-1-[6-(1-hydroxy-1-methyl-ethyl)-2-methyl-pyridin-3-yl]-3-methyl-1,3-dihydro-imidazo[4,5-c]quinolin-2-one]",,1 nM
5.01 nM,−3.8,11.7 nM,92.1 nM,,,"CCOc1ccc(-c2ccc3ncc4c(c3c2)n(-c2ccc(OC)nc2C)c(=O)n4C)cn1 [Example 11.1, 8-(6-Ethoxy-pyridin-3-yl)-1-(6-methoxy-2-methyl-pyridin-3-yl)-3-methyl-1,3-dihydro-imidazo[4,5-c]quinolin-2-one]",10.6 nM,
64.1 nM,,273 nM,1060 nM,,−5.3,"Cc1ncccc1-n1c(=O)n(C)c2cnc3ccc(-c4ccc5nccn5c4)cc3c21 [Example 2.23, 8-Imidazo[1,2-a]pyridin-6-yl-3-methyl-1-(2-methyl-pyridin-3-yl)-1,3-dihydro-imidazo[4,5-c]quinolin-2-one]",,37 nM
